Experimental data taken from patent publication US6800674B2, “Anthraquinone compound and water-based ink-jet recording ink containing the compound” (Mitsui Chemicals, Inc., priority 2000, dated 2004).

Test: Evaluation of water resistance (OD1 after/before dipping in water)
Format: physicochemical
Conditions: aqueous ink, ink production process Example 1; OD1 after dipping in water and air-drying
Protocol: (§1) Glycerin and water were added to the dispersion (A) of colored resin fine particles to obtain aqueous ink having a solid content of 15% by weight. This aqueous ink was used, and filled in an ink cartridge for a piezo-type ink jet printer, and printing and image recording were conducted with the same printer. The test was conducted on the following items.
(D) Evaluation of Water Resistance
With respect to a printed portion of a plain paper having a recorded image thereon for test, printing density (OD value) was measured with a reflection densitometer before dipping in water and after dipping in water and air-drying. Water resistance was evaluated upon comparing OD1.
OD1=(OD value after dipping in water and air-drying)/(OD value before dipping in water)×100[%]
For Nc1ccccc1Oc1cc(O)c2c(c1N)C(=O)c1ccccc1C2=O [compound 4], the “D (Evaluation of water resistance)” value was “⊚ (OD value is 80 to less than 90%.)”. For Nc1c(SCCOCCSc2cc(O)c3c(c2N)C(=O)c2ccccc2C3=O)cc(O)c2c1C(=O)c1ccccc1C2=O [compound 31], the “D (Evaluation of water resistance)” value was “◯ (OD value is 70 to less than 80%.)”. For CCCN(CCC)c1cccc(Oc2cc(O)c3c(c2N)C(=O)c2ccccc2C3=O)c1 [compound 8], the “D (Evaluation of water resistance)” value was “⊚⊚ (OD value is 90 to 100%.)”. With CCNc1cccc(Oc2cc(O)c3c(c2N)C(=O)c2ccccc2C3=O)c1 [compound 6] the “D (Evaluation of water resistance)” value was “⊚⊚ (OD value is 90 to 100%.)”. For CNc1cccc2c1C(=O)c1ccccc1C2=O [Comparative Example 3, reference compound], the “D (Evaluation of water resistance)” value was “◯ (OD value is 70 to less than 80%.)”. With CCCCC(CC)CC(=O)Nc1ccc(O)cc1Sc1cc(O)c2c(c1N)C(=O)c1ccccc1C2=O (stereo not drawn) [compound 19] the “D (Evaluation of water resistance)” value was “◯ (OD value is 70 to less than 80%.)”. In the case of CCCCCCCCOC(=O)CSc1cc(O)c2c(c1N)C(=O)c1ccccc1C2=O [compound 20], the “D (Evaluation of water resistance)” value is reported as “◯ (OD value is 70 to less than 80%.)”. For CCCCC(CC)C(=O)Nc1ccccc1Oc1cc(O)c2c(c1N)C(=O)c1ccccc1C2=O (stereo not drawn) [compound 33], the “D (Evaluation of water resistance)” value was “◯ (OD value is 70 to less than 80%.)”. With Nc1c(Oc2cccc(C(F)(F)F)c2)cc(O)c2c1C(=O)c1ccccc1C2=O [compound 37] the “D (Evaluation of water resistance)” value was “◯ (OD value is 70 to less than 80%.)”. For CCCCC(CC)C(=O)Oc1ccc(Oc2cc(O)c3c(c2N)C(=O)c2ccccc2C3=O)cc1 (stereo not drawn) [compound 39], the “D (Evaluation of water resistance)” value was “◯ (OD value is 70 to less than 80%.)”. In the case of Nc1c(Oc2ccc(C(c3ccccc3)c3ccccc3)cc2)cc(O)c2c1C(=O)c1ccccc1C2=O [compound 12], the “D (Evaluation of water resistance)” value is reported as “⊚ (OD value is 80 to less than 90%.)”. In the case of CCCCCCN(CCCCCC)c1cccc(Oc2cc(O)c3c(c2N)C(=O)c2ccccc2C3=O)c1 [compound 10], the “D (Evaluation of water resistance)” value is reported as “⊚⊚ (OD value is 90 to 100%.)”.

Same assay, conditions: aqueous ink, ink production process Example 2; OD1 after dipping in water and air-drying
In the case of Nc1ccccc1Oc1cc(O)c2c(c1N)C(=O)c1ccccc1C2=O [compound 4], the “D (Evaluation of water resistance)” value is reported as “⊚ (OD value is 80 to less than 90%.)”. With CCCN(CCC)c1cccc(Oc2cc(O)c3c(c2N)C(=O)c2ccccc2C3=O)c1 [compound 8] the “D (Evaluation of water resistance)” value was “⊚⊚ (OD value is 90 to 100%.)”. For CCNc1cccc(Oc2cc(O)c3c(c2N)C(=O)c2ccccc2C3=O)c1 [compound 6], the “D (Evaluation of water resistance)” value was “⊚⊚ (OD value is 90 to 100%.)”. With Nc1c(Oc2ccc(C(c3ccccc3)c3ccccc3)cc2)cc(O)c2c1C(=O)c1ccccc1C2=O [compound 12] the “D (Evaluation of water resistance)” value was “⊚ (OD value is 80 to less than 90%.)”. For CCCCCCN(CCCCCC)c1cccc(Oc2cc(O)c3c(c2N)C(=O)c2ccccc2C3=O)c1 [compound 10], the “D (Evaluation of water resistance)” value was “⊚⊚ (OD value is 90 to 100%.)”.

Test: Evaluation of light fastness (xenon fadeometer, OD2)
Format: physicochemical
Conditions: not given
Protocol: as §1
(E) Evaluation of Light Fastness
Printing density (OD value) was measured using a xenon fadeometer (manufactured by Suga Shikenki) before irradiation and after 100 hours of irradiation. Light fastness was evaluated upon comparing OD2.
OD2=(OD value after irradiation)/(OD value before irradiation)×100[%]
For CNc1cccc2c1C(=O)c1ccccc1C2=O [Comparative Example 3, reference compound], the “light fastness (in words)” value was “extremely bad”.

Same assay, conditions: aqueous ink, ink production process Example 1; OD2 after 100 hours of irradiation
With Nc1ccccc1Oc1cc(O)c2c(c1N)C(=O)c1ccccc1C2=O [compound 4] the “E (Evaluation of light fastness)” value was “◯ (OD value is 70 to less than 80%.)”. With Nc1c(SCCOCCSc2cc(O)c3c(c2N)C(=O)c2ccccc2C3=O)cc(O)c2c1C(=O)c1ccccc1C2=O [compound 31] the “E (Evaluation of light fastness)” value was “Δ (OD value is 50 to less than 70%.)”. In the case of CCCN(CCC)c1cccc(Oc2cc(O)c3c(c2N)C(=O)c2ccccc2C3=O)c1 [compound 8], the “E (Evaluation of light fastness)” value is reported as “⊚⊚ (OD value is 90 to 100%.)”. In the case of CCNc1cccc(Oc2cc(O)c3c(c2N)C(=O)c2ccccc2C3=O)c1 [compound 6], the “E (Evaluation of light fastness)” value is reported as “⊚ (OD value is 80 to less than 90%.)”. With CNc1cccc2c1C(=O)c1ccccc1C2=O [Comparative Example 3, reference compound] the “E (Evaluation of light fastness)” value was “X (OD value is less than 50%.)”. In the case of CCCCC(CC)CC(=O)Nc1ccc(O)cc1Sc1cc(O)c2c(c1N)C(=O)c1ccccc1C2=O (stereo not drawn) [compound 19], the “E (Evaluation of light fastness)” value is reported as “Δ (OD value is 50 to less than 70%.)”. With CCCCCCCCOC(=O)CSc1cc(O)c2c(c1N)C(=O)c1ccccc1C2=O [compound 20] the “E (Evaluation of light fastness)” value was “Δ (OD value is 50 to less than 70%.)”. In the case of CCCCC(CC)C(=O)Nc1ccccc1Oc1cc(O)c2c(c1N)C(=O)c1ccccc1C2=O (stereo not drawn) [compound 33], the “E (Evaluation of light fastness)” value is reported as “◯ (OD value is 70 to less than 80%.)”. With Nc1c(Oc2cccc(C(F)(F)F)c2)cc(O)c2c1C(=O)c1ccccc1C2=O [compound 37] the “E (Evaluation of light fastness)” value was “◯ (OD value is 70 to less than 80%.)”. For CCCCC(CC)C(=O)Oc1ccc(Oc2cc(O)c3c(c2N)C(=O)c2ccccc2C3=O)cc1 (stereo not drawn) [compound 39], the “E (Evaluation of light fastness)” value was “◯ (OD value is 70 to less than 80%.)”. For Nc1c(Oc2ccc(C(c3ccccc3)c3ccccc3)cc2)cc(O)c2c1C(=O)c1ccccc1C2=O [compound 12], the “E (Evaluation of light fastness)” value was “◯ (OD value is 70 to less than 80%.)”. For CCCCCCN(CCCCCC)c1cccc(Oc2cc(O)c3c(c2N)C(=O)c2ccccc2C3=O)c1 [compound 10], the “E (Evaluation of light fastness)” value was “⊚⊚ (OD value is 90 to 100%.)”.

Test: Solvent solubility of the coloring matter
Format: physicochemical
Conditions: ink produced as in Example 1
In the case of CNc1cccc2c1C(=O)c1ccccc1C2=O [Comparative Example 3, reference compound], the “solubility of the coloring matter (in words)” value is reported as “low”.

Test: Evaluation of light fastness (xenon fadeometer, OD2)
Format: physicochemical
Conditions: aqueous ink, ink production process Example 2; OD2 after 100 hours of irradiation
For Nc1ccccc1Oc1cc(O)c2c(c1N)C(=O)c1ccccc1C2=O [compound 4], the “E (Evaluation of light fastness)” value was “◯ (OD value is 70 to less than 80%.)”. In the case of CCCN(CCC)c1cccc(Oc2cc(O)c3c(c2N)C(=O)c2ccccc2C3=O)c1 [compound 8], the “E (Evaluation of light fastness)” value is reported as “⊚⊚ (OD value is 90 to 100%.)”. For CCNc1cccc(Oc2cc(O)c3c(c2N)C(=O)c2ccccc2C3=O)c1 [compound 6], the “E (Evaluation of light fastness)” value was “◯ (OD value is 70 to less than 80%.)”. For Nc1c(Oc2ccc(C(c3ccccc3)c3ccccc3)cc2)cc(O)c2c1C(=O)c1ccccc1C2=O [compound 12], the “E (Evaluation of light fastness)” value was “◯ (OD value is 70 to less than 80%.)”. In the case of CCCCCCN(CCCCCC)c1cccc(Oc2cc(O)c3c(c2N)C(=O)c2ccccc2C3=O)c1 [compound 10], the “E (Evaluation of light fastness)” value is reported as “⊚⊚ (OD value is 90 to 100%.)”.
